# Legend:
# [1] = target: Serine/threonine-protein kinase MRCK alpha (Homo sapiens, UniProt Q5VT25); assay: Inhibition of recombinant human His-tagged MRCKalpha catalytic domain (1 to 473 residues) expressed in baculovirus expression system using serine/threonine-13 peptide as substrate incubated for 60 mins in presence of ATP by Z'-LYTE assay
# [2] = target: Vascular endothelial growth factor receptor 2 (Homo sapiens, UniProt P35968); assay: Inhibition of recombinant human His-tagged KDR (789 to 1356 residues) expressed in baculovirus expression system using Tyr1 as substrate incubated for 1 hr in presence of ATP by Z'-LYTE assay
# Chain of Vascular endothelial growth factor receptor 2 (P35968 whole entry, the tested form may be a part): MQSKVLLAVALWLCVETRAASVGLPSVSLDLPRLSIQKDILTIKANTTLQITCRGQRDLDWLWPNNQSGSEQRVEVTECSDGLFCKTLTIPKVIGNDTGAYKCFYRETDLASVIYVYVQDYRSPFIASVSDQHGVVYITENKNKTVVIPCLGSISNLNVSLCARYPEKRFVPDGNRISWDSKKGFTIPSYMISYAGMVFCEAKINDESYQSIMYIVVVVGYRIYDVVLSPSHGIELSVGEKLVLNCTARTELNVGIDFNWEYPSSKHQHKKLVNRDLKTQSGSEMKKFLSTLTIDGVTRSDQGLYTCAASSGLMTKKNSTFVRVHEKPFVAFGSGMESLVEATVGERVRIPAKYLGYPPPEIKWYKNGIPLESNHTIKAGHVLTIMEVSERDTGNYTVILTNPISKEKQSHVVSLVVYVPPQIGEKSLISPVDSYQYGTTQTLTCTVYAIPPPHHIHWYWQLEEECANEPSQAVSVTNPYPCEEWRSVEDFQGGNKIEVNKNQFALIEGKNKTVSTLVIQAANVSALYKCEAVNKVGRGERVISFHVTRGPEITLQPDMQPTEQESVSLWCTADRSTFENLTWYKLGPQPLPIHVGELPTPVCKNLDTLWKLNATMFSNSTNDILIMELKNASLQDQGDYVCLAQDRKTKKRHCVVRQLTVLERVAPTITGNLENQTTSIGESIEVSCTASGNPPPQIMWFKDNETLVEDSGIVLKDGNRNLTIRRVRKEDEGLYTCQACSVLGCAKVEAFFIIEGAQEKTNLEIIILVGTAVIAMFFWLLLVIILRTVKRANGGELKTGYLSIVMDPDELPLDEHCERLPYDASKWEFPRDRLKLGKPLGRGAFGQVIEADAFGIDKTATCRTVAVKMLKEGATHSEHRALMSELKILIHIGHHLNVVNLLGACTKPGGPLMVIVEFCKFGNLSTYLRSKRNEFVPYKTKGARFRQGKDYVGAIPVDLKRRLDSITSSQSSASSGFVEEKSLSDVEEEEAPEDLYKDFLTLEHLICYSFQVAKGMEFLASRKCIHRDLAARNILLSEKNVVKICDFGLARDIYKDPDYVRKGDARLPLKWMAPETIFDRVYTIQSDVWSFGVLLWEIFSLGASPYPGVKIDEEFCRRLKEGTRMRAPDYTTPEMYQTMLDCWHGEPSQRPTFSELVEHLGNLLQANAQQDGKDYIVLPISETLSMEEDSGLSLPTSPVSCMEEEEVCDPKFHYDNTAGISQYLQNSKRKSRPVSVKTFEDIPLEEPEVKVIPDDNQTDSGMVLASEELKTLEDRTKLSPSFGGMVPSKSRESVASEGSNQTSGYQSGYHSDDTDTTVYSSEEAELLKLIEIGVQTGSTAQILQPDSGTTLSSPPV
# [3] = target: Serine/threonine-protein kinase 4 (Homo sapiens, UniProt Q13043); assay: Inhibition of recombinant full length human GST-tagged MST1 expressed in baculovirus expression system using serine/threonine-7 peptide as substrate incubated for 60 mins in presence of ATP by Z'-LYTE assay
# [4] = target: Alpha-1B adrenergic receptor (Rattus norvegicus) (UniProt P15823); assay: Displacement of [3H]prazosin from alpha1b adrenergic receptor in Wistar rat liver membranes at 10 uM measured after 60 mins by scintillation counting method relative to control; type: cell membranes; conditions: Membrane
# [5] = target: cGMP-dependent protein kinase 1 (Homo sapiens, UniProt Q13976); assay: Inhibition of recombinant full length human GST-tagged PRKG1 expressed in baculovirus expression system using serine/threonine-01 peptide as substrate incubated for 60 mins in presence of ATP by Z'-LYTE assay
# Chain of cGMP-dependent protein kinase 1 (Q13976 whole entry): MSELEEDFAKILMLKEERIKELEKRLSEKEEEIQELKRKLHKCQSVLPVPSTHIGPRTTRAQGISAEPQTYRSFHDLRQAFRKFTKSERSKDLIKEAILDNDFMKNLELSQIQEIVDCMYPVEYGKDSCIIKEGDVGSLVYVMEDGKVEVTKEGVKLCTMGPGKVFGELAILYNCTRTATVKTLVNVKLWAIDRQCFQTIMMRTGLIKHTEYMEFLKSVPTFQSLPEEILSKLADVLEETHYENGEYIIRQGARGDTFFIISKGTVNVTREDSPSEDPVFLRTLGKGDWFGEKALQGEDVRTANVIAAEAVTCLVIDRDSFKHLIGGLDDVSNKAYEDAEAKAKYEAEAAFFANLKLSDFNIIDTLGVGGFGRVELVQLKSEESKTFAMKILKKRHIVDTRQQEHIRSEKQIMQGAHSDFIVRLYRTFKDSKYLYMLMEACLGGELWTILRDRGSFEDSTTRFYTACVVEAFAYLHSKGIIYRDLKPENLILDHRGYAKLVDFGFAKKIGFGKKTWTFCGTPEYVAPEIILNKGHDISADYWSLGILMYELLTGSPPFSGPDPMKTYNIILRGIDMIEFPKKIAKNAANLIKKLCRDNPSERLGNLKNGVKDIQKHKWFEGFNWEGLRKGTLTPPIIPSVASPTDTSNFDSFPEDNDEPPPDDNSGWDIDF
# [6] = target: Type-1 angiotensin II receptor (Homo sapiens) (UniProt P30556); assay: Displacement of [125I][Sar1,Ile8]-AT-II from full length human recombinant AT1 receptor expressed in CHOK1 cells at 10 uM measured after 120 mins by radiometric scintillation analysis relative to control; type: cell-based; conditions: CHO-K1
# [7] = target: Fibroblast growth factor receptor 2 (Homo sapiens, UniProt P21802); assay: Inhibition of recombinant His-tagged human FGFR2 (403 to 822 residues) cytoplasmic domain expressed in baculovirus expression system using Tyr 04 peptide as substrate after 1 hr in presence of ATP by Z'-LYTE assay
# [8] = target: G protein-coupled receptor kinase 6 (Homo sapiens, UniProt P43250); assay: Inhibition of recombinant full length human GST-tagged GRK6 expressed in baculovirus expression system using serine/threonine-16 peptide as substrate incubated for 60 mins in presence of ATP by Z'-LYTE assay
# [9] = target: Beta-3 adrenergic receptor (Homo sapiens) (UniProt P13945); assay: Displacement of [125I]cyanopindolol from full-length recombinant human beta3 adrenergic receptor expressed in HEK293 cell membranes at 10 uM measured after 90 mins by scintillation counting method relative to control
# Chain of Beta-3 adrenergic receptor (Homo sapiens) (P13945 whole entry, looked up): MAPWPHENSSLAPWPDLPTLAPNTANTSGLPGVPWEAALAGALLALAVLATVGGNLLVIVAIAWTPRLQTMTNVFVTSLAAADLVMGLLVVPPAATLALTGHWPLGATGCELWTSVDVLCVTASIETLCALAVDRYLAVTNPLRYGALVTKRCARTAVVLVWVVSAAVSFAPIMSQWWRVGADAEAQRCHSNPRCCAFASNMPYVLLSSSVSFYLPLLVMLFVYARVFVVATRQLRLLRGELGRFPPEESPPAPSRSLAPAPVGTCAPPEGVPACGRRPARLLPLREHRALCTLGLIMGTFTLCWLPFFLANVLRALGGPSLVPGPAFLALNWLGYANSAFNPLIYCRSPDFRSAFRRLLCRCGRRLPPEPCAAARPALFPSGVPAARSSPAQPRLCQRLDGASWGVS
# [10] = target: Prostacyclin receptor (Homo sapiens) (UniProt P43119); assay: Inhibition of human prostanoid IP receptor at 10 uM relative to control
# [11] = target: Muscarinic acetylcholine receptor M2 (Homo sapiens) (UniProt P08172); assay: Displacement of [3H]N-Methylscopolamine from full length human recombinant Muscarinic M2 receptor expressed in CHOK1 cells at 10 uM measured after 120 mins by radiometric scintillation analysis relative to control; type: cell-based; conditions: CHO-K1
# [12] = target: Serine/threonine-protein kinase PLK3 (Homo sapiens, UniProt Q9H4B4); assay: Inhibition of recombinant human GST-tagged PLK3 catalytic domain (58 to 340 residues) expressed in baculovirus expression system using serine/threonine-16 peptide as substrate incubated for 60 mins in presence of ATP by Z'-LYTE assay
# Chain of Serine/threonine-protein kinase PLK3 (Q9H4B4 whole entry, the tested form may be a part): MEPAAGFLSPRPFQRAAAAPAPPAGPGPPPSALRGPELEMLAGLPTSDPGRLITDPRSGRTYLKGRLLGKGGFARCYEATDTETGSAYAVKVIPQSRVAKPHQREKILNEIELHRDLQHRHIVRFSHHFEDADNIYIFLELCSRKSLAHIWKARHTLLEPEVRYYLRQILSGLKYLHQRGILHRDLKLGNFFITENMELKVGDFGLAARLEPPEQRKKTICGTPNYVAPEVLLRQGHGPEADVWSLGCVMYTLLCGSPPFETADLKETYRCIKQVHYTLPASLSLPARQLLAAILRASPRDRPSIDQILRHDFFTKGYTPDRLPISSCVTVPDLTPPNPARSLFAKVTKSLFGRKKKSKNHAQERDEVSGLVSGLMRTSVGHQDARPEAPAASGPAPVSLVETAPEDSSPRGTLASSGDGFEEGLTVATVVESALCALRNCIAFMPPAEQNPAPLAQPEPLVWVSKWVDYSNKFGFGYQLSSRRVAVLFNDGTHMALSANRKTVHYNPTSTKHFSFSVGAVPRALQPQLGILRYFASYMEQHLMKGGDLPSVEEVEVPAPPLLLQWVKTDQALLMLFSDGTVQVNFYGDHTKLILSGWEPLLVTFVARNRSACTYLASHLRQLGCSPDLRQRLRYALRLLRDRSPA
# [13] = target: 5-hydroxytryptamine receptor 2B (Homo sapiens) (UniProt P41595); assay: Displacement of [3H]lysergic acid diethylamide from full length human recombinant 5HT2B receptor expressed in CHOK-1 cells at 10 uM measured after 60 mins by radiometric scintillation analysis relative to control; type: cell-based
# Caspase-8 (Homo sapiens) = Caspase-8 (Homo sapiens) (UniProt Q14790); assay: Inhibition of recombinant human caspase 8 (217 to end residues) expressed in Escherichia coli at 10 uM using Ac-IETD-AMC as substrate after 60 mins by spectrophotometric analysis relative to control
# [14] = target: Serine/threonine-protein kinase Nek6 (Homo sapiens, UniProt Q9HC98); assay: Inhibition of recombinant full length human GST-tagged NEK6 expressed in insect expression system using serine/threonine-22 peptide as substrate incubated for 60 mins in presence of ATP by Z'-LYTE assay
# CDK2/Cyclin A2 = CDK2/Cyclin A2 (Homo sapiens, UniProt P24941); assay: Inhibition of recombinant full length human His-tagged CDK2/Cyclin A expressed in baculovirus expression system using serine/threonine-12 peptide as substrate incubated for 60 mins in presence of ATP by Z'-LYTE assay
# [15] = target: Serine/threonine-protein kinase PAK 2 (Homo sapiens, UniProt Q13177); assay: Inhibition of recombinant full length human GST-tagged PAK2 expressed in baculovirus expression system using serine/threonine-20 peptide as substrate incubated for 60 mins in presence of ATP by Z'-LYTE assay
# [16] = target: BDNF/NT-3 growth factors receptor (Homo sapiens, UniProt Q16620); assay: Inhibition of recombinant human His-tagged NTRK2 cytoplasmic domain (526 to 838 residues) expressed in baculovirus expression system using tyrosine-01 peptide as substrate incubated for 60 mins in presence of ATP by Z'-LYTE assay
# [17] = target: 5-hydroxytryptamine receptor 2A (Homo sapiens) (UniProt P28223); assay: Displacement of [3H]ketanserin from full length human recombinant 5HT2A receptor expressed in CHOK-1 cells at 10 uM measured after 60 mins by radiometric scintillation analysis relative to control; type: cell-based
# [18] = target: Mitogen-activated protein kinase 14 (Homo sapiens, UniProt Q16539); assay: Inhibition of recombinant full length GST-tagged human inactive MAPK14 expressed in Escherichia coli using Ser/Thr 04 as substrate after 1 hr in presence of ATP by Z'LYTE assay
# Chain of Mitogen-activated protein kinase 14 (Q16539 whole entry): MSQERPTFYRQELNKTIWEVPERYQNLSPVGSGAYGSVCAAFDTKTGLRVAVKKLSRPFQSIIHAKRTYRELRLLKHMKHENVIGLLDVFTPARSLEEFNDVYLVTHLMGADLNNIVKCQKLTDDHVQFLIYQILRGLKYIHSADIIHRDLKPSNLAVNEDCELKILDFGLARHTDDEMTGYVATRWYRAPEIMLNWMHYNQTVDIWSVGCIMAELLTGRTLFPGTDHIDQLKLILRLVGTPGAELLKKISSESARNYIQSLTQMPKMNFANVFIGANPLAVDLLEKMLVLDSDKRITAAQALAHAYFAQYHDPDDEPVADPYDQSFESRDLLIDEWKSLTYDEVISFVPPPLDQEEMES
# [19] = target: Serine/threonine-protein kinase N1 (Homo sapiens, UniProt Q16512); assay: Inhibition of recombinant full length GST-tagged human PKN1 expressed in baculovirus expression system using Ser/Thr 07 as substrate in presence of ATP after 1 hr by Z'-LYTE assay
# Chain of Serine/threonine-protein kinase N1 (Q16512 whole entry, the tested form may be a part): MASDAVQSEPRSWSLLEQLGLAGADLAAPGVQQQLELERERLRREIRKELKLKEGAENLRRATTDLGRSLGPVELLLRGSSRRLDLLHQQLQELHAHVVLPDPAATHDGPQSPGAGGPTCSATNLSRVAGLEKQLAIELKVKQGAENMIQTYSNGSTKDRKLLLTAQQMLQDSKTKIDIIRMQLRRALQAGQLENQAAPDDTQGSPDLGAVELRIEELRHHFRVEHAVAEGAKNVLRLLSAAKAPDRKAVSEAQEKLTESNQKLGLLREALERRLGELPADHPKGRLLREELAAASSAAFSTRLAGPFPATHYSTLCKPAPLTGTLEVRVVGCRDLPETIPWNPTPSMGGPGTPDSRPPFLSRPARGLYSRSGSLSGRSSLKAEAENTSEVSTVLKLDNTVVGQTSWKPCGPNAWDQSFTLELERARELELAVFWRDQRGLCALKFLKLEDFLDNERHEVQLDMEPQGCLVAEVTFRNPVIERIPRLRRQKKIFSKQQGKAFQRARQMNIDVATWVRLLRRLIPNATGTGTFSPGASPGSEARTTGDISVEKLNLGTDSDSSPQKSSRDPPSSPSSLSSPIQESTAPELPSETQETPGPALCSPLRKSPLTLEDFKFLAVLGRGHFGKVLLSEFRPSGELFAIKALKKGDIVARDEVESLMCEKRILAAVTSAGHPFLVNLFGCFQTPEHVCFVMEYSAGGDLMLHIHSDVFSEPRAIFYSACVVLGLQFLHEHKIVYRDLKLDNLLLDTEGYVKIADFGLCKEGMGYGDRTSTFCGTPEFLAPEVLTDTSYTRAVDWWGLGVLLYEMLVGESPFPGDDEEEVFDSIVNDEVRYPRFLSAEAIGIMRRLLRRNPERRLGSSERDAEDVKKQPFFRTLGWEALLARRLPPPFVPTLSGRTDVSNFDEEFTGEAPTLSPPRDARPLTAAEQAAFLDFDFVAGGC
# [20] = target: Ribosomal protein S6 kinase beta-1 (Homo sapiens, UniProt P23443); assay: Inhibition of recombinant human GST-tagged p70S6K catalytic domain expressed in baculovirus expression system using serine/threonine-7 peptide as substrate incubated for 60 mins in presence of ATP by Z'-LYTE assay
# [21] = target: Serine/threonine-protein kinase Nek2 (Homo sapiens, UniProt P51955); assay: Inhibition of recombinant full length human His-tagged NEK2 expressed in baculovirus expression system using serine/threonine-7 peptide as substrate incubated for 60 mins in presence of ATP by Z'-LYTE assay
# [22] = target: Casein kinase I isoform gamma-1 (Homo sapiens, UniProt Q9HCP0); assay: Inhibition of recombinant human full-length GST-tagged CSNK1G1 expressed in baculovirus expression system using FRET-labeled Ser/Thr 05 peptide as substrate measured after 1 hr in presence of ATP by Z'-lyte assay
# Chain of Casein kinase I isoform gamma-1 (Q9HCP0 whole entry, canonical isoform): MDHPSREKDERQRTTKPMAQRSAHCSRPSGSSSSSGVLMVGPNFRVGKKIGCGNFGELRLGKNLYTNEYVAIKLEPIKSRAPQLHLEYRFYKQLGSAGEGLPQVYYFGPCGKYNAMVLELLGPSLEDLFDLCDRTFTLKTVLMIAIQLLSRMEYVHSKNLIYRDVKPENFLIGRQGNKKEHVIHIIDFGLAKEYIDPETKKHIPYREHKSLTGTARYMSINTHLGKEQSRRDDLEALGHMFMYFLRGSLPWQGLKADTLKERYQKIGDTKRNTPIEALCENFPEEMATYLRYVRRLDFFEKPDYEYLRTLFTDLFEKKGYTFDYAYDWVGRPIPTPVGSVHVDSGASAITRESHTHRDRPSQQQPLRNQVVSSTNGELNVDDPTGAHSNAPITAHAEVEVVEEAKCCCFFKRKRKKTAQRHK
# [23] = target: Endothelin receptor type B (Homo sapiens) (UniProt P24530); assay: Displacement of [125I]endothelin-1 from recombinant full length human recombinant ETB receptor expressed in CHO-K1 cells at 10 uM measured after 120 mins by radiometric scintillation analysis relative to control; type: cell-based
smiles,measurement,setting,value
C[C@@H]1C[C@H]1C(=O)N1CCN(c2cnc(C#N)c(-c3cnn(C)c3)n2)C[C@H]1C,IC50,[1],> 100 µM
same,IC50,[2],37.6 µM
same,IC50,[3],> 100 µM
same,inhibition,[4],-1%
same,IC50,[5],> 100 µM
same,inhibition,[6],-4%
same,IC50,[7],> 100 µM
same,IC50,[8],> 100 µM
same,inhibition,[9],-1%
same,inhibition,[10],-1%
same,inhibition,[11],1%
same,IC50,[12],> 100 µM
same,inhibition,[13],19%
same,inhibition,Caspase-8 (Homo sapiens),2%
same,IC50,[14],> 100 µM
same,IC50,CDK2/Cyclin A2,> 100 µM
same,IC50,[15],> 100 µM
same,IC50,[16],> 100 µM
same,inhibition,[17],6%
same,IC50,[18],> 100 µM
same,IC50,[19],> 100 µM
same,IC50,[20],> 100 µM
same,IC50,[21],> 100 µM
same,IC50,[22],> 100 µM
same,inhibition,[23],2%
